In patent US20220348558A1, “INHIBITORS OF ENCEPHALITIC ALPHAVIRUSES” (priority 2019, published 2022):

Key:
VEEV TC83 = experiment: microbe, parasite or virus in culture; type: cell-based; conditions: Venezuelan equine encephalitis virus, Vero 76, 48 h, read-out: VEEV TC83 EC50 nM
WEEV California = experiment: microbe, parasite or virus in culture; type: cell-based; conditions: Western equine encephalitis virus, Vero 76, 48 h, read-out: WEEV California EC50 nM

| SMILES | EC50 (VEEV TC83) [nM] | EC50 (WEEV California) [nM] |
| --- | --- | --- |
| COc1c(F)cc(-n2c(C3CCCN3)nc3c(-c4cc(C)nc(C)c4)cc(C#N)cc3c2=O)cc1F (centres unmarked) [Example 159, 3-(3,5-Difluoro-4-methoxyphenyl)-8-(2,6-dimethylpyridin-4-yl)-4-oxo-2-(pyrrolidin-2-yl)-3,4-dihydroquinazoline-6-carbonitrile] | 51 to 150 | 51 to 150 |
| COc1ccc(-n2c([C@H]3CCCN3)nc3c(C(F)(F)F)cc(C#N)cc3c2=O)cc1F [Example 76, (R)-3-(3-fluoro-4-methoxyphenyl)-4-oxo-2-(pyrrolidin-2-yl)-8-(trifluoromethyl)-3,4-dihydroquinazoline-6-carbonitrile] | 1 to 50 | 1 to 50 |
| COc1ccc(-n2c([C@H]3CC(F)(F)CN3)nc3c(-c4ccc(C)nc4)cc(C#N)cc3c2=O)cc1F [Example 184, (R)-2-(4,4-difluoropyrrolidin-2-yl)-3-(3-fluoro-4-methoxyphenyl)-8-(6-methylpyridin-3-yl)-4-oxo-3,4-dihydroquinazoline-6-carbonitrile] | 51 to 150 | 51 to 150 |
| O=c1c2cc([N+](=O)[O-])ccc2nc(C2CCCN2)n1-c1ccc(F)cc1 (centres unmarked) [Example 42, 3-(4-fluorophenyl)-6-nitro-2-(pyrrolidin-2-yl)quinazolin-4 (3H)-one] | 51 to 150 | 151 to 500 |
| COc1ccc(-n2c([C@@H]3CCCN3)nc3c(Br)cc(C#N)cc3c2=O)cc1F [Example 97, (S)-8-bromo-3-(3-fluoro-4-methoxyphenyl)-4-oxo-2-(pyrrolidin-2-yl)-3,4-dihydroquinazoline-6-carbonitrile] | 1 to 50 | 1 to 50 |
| COc1ccc(-n2c(C[C@H]3CCCN3)nc3c(-c4ccc(C)nc4)cc(C#N)cc3c2=O)cc1F [Example 117, (R)-3-(3-fluoro-4-methoxyphenyl)-8-(6-methylpyridin-3-yl)-4-oxo-2-(pyrrolidin-2-ylmethyl)-3,4-dihydroquinazoline-6-carbonitrile] | 151 to 500 | 501 to 1000 |
| COc1c(F)cc(-n2c(C3CCCNC3)nc3c(-c4ccc(C)nc4)cc(C#N)cc3c2=O)cc1F (centres unmarked) [Example 189, 3-(3,5-difluoro-4-methoxyphenyl)-8-(6-methylpyridin-3-yl)-4-oxo-2-(piperidin-3-yl)-3,4-dihydroquinazoline-6-carbonitrile] | 51 to 150 | 51 to 150 |
| COc1ccc(-n2c([C@H]3CCCN3)nc3c(-c4ccnc(F)c4)cc(C#N)cc3c2=O)cc1F [Example 104, (R)-3-(3-fluoro-4-methoxyphenyl)-8-(2-fluoropyridin-4-yl)-4-oxo-2-(pyrrolidin-2-yl)-3,4-dihydroquinazoline-6-carbonitrile] | 1 to 50 | 1 to 50 |
| COc1ccc(-n2c(C3CCCN3)nc3c(-c4ccc(N(C)C)nc4)cc(C#N)cc3c2=O)cc1F (centres unmarked) [Example 130, 8-(6-(dimethylamino)pyridin-3-yl)-3-(3-fluoro-4-methoxyphenyl)-4-oxo-2-(pyrrolidin-2-yl)-3,4-dihydroquinazoline-6-carbonitrile] | 1 to 50 | 1 to 50 |
| COc1ccc(-n2c(C3C[C@@H]4CCC[C@@H]4N3)nc3c(-c4ccc(C)nc4)cc(C#N)cc3c2=O)cc1F (stereo partly drawn) [Example 140, 3-(3-fluoro-4-methoxyphenyl)-8-(6-methylpyridin-3-yl)-2-((3aS,6aS)-octahydrocyclopenta[b]pyrrol-2-yl)-4-oxo-3,4-dihydroquinazoline-6-carbonitrile] | 1 to 50 | 1 to 50 |
| CN[C@@H](C)c1nc2ccc([N+](=O)[O-])cc2c(=O)n1-c1ccc(OC)cc1 [Example 206, (S)-3-(4-methoxyphenyl)-2-(1-(methylamino)ethyl)-6-nitroquinazolin-4 (3H)-one] | 51 to 150 | 151 to 500 |
| COc1ccc(-n2c([C@@H]3CCCN3)nc3c(F)cc(C#N)cc3c2=O)cc1 [Example 79, (S)-8-fluoro-3-(4-methoxyphenyl)-4-oxo-2-(pyrrolidin-2-yl)-3,4-dihydroquinazoline-6-carbonitrile] | 501 to 1000 | 501 to 1000 |
| COc1ccc(-n2c([C@@H]3CCCN3C)nc3c(C)cc([N+](=O)[O-])cc3c2=O)cc1F [Example 70, (S)-3-(3-fluoro-4-methoxyphenyl)-8-methyl-2-(1-methylpyrrolidin-2-yl)-6-nitroquinazolin-4 (3H)-one] | 1 to 50 | 1 to 50 |
| CNC(C)c1nc2ccc([N+](=O)[O-])cc2c(=O)n1-c1ccc(OC)cc1 (centres unmarked) [Example 205, 3-(4-methoxyphenyl)-2-(1-(methylamino)ethyl)-6-nitroquinazolin-4 (3H)-one] | 51 to 150 | 51 to 150 |
| COc1ccc(-n2c([C@H]3C[C@H](F)CN3)nc3c(C)cc(C#N)cc3c2=O)cc1 [Example 53, 2-((2R,4S)-4-fluoropyrrolidin-2-yl)-3-(4-methoxyphenyl)-8-methyl-4-oxo-3,4-dihydroquinazoline-6-carbonitrile] | 151 to 500 | 151 to 500 |
| [N-]=[N+]=Nc1cccc(-n2c([C@H]3CCCN3)nc3ccc([N+](=O)[O-])cc3c2=O)c1 [Example 17, (R)-3-(3-azidophenyl)-6-nitro-2-(pyrrolidin-2-yl) quinazolin-4 (3H)-one] | 151 to 500 | > 1000 |

| SMILES | EC50 (VEEV TC83) [nM] | EC50 (WEEV California) [nM] |
| --- | --- | --- |
| COc1ccc(-n2c([C@H]3CCCN3)nc3c(-c4ccc(C)nc4)cc([N+](=O)[O-])cc3c2=O)cc1F [Example 92, (R)-3-(3-fluoro-4-methoxyphenyl)-8-(6-methylpyridin-3-yl)-6-nitro-2-(pyrrolidin-2-yl) quinazolin-4 (3H)-one] | 1 to 50 | 1 to 50 |
| COc1ccc(-n2c([C@H]3CCCN3)nc3ccc(F)c(F)c3c2=O)cc1 [Example 28, (R)-5,6-difluoro-3-(4-methoxyphenyl)-2-(pyrrolidin-2-yl) quinazolin-4 (3H)-one] | 151 to 500 | > 1000 |
| CN1CCC(N2CCC[C@H]2c2nc3ccc([N+](=O)[O-])cc3c(=O)n2-c2ccccc2)CC1 [Example 7, (S)-2-(1-(1-methylpiperidin-4-yl)pyrrolidin-2-yl)-6-nitro-3-phenylquinazolin-4 (3H)-one] | > 1000 | > 1000 |
| COc1ccc(-n2c(C3CCCN3)nc3c(C#Cc4ccc(C)nc4)cc(C#N)cc3c2=O)cc1F (centres unmarked) [Example 194, 3-(3-Fluoro-4-methoxyphenyl)-8-((6-methylpyridin-3-yl)ethynyl)-4-oxo-2-(pyrrolidin-2-yl)-3,4-dihydroquinazoline-6-carbonitrile] | 51 to 150 | 51 to 150 |
| COc1cccc(-c2cc(C#N)cc3c(=O)n(-c4ccc(OC)c(F)c4)c(C4CCCN4)nc23)c1 (centres unmarked) [Example 148, 3-(3-Fluoro-4-methoxyphenyl)-8-(3-methoxyphenyl)-4-oxo-2-(pyrrolidin-2-yl)-3,4-dihydroquinazoline-6-carbonitrile] | 1 to 50 | 1 to 50 |
| COc1cccc(-n2c(C3CCCN3)nc3ccc([N+](=O)[O-])cc3c2=O)c1 (centres unmarked) [Example 32, 3-(3-methoxyphenyl)-6-nitro-2-(pyrrolidin-2-yl)quinazolin-4 (3H)-one] | > 1000 | > 1000 |
| COc1ccc(-n2c(C3CCCN3)nc3c(-c4ccc(OC(F)(F)F)cc4)cc(C#N)cc3c2=O)cc1F (centres unmarked) [Example 151, 3-(3-Fluoro-4-methoxyphenyl)-4-oxo-2-(pyrrolidin-2-yl)-8-(4-(trifluoromethoxy)phenyl)-3,4-dihydroquinazoline-6-carbonitrile] | 1 to 50 | 1 to 50 |
| COc1ccc(-n2c(-c3ncco3)nc3c(-c4ccc(C)nc4)cc(C#N)cc3c2=O)cc1F [Example 202, 3-(3-fluoro-4-methoxyphenyl)-8-(6-methylpyridin-3-yl)-2-(oxazol-2-yl)-4-oxo-3,4-dihydroquinazoline-6-carbonitrile] | > 1000 | > 1000 |
| COc1ccc(-n2c([C@@H]3CCCN3)nc3c(-c4cccnc4)cc([N+](=O)[O-])cc3c2=O)cc1F [Example 83, (S)-3-(3-fluoro-4-methoxyphenyl)-6-nitro-8-(pyridin-3-yl)-2-(pyrrolidin-2-yl) quinazolin-4 (3H)-one] | 1 to 50 | 1 to 50 |
| COc1ccc(-n2c([C@H]3CCCN3)nc3c(-c4cccnc4)cc([N+](=O)[O-])cc3c2=O)cc1 [Example 85, (R)-3-(4-methoxyphenyl)-6-nitro-8-(pyridin-3-yl)-2-(pyrrolidin-2-yl) quinazolin-4 (3H)-one] | 1 to 50 | 1 to 50 |
| COc1ccc(-c2cc(C#N)cc3c(=O)n(-c4ccc(OC)c(F)c4)c(C4CCCN4)nc23)cn1 (centres unmarked) [Example 125, 3-(3-fluoro-4-methoxyphenyl)-8-(6-methoxypyridin-3-yl)-4-oxo-2-(pyrrolidin-2-yl)-3,4-dihydroquinazoline-6-carbonitrile] | 1 to 50 | 1 to 50 |
| COc1ccc(-n2c(C3CCCN3)nc3c(Cc4ccc(C)nc4)cc(C#N)cc3c2=O)cc1F (centres unmarked) [Example 187, 3-(3-fluoro-4-methoxyphenyl)-8-((6-methylpyridin-3-yl)methyl)-4-oxo-2-(pyrrolidin-2-yl)-3,4-dihydroquinazoline-6-carbonitrile] | 51 to 150 | 151 to 500 |
| O=c1c2cc([N+](=O)[O-])ccc2nc([C@H]2CCCN2C2CCOCC2)n1-c1ccccc1 [Example 3, (R)-6-nitro-3-phenyl-2-(1-(tetrahydro-2H-pyran-4-yl)pyrrolidin-2-yl) quinazolin-4 (3H)-one] | 501 to 1000 | > 1000 |
| COc1ccc(-n2c([C@@H]3CCCN3C3CCOCC3)nc3ccc(F)c(F)c3c2=O)cc1 [Example 31, (S)-5,6-difluoro-3-(4-methoxyphenyl)-2-(1-(tetrahydro-2H-pyran-4-yl)pyrrolidin-2-yl) quinazolin-4 (3H)-one] | > 1000 | > 1000 |
| COc1ccc(-n2c(C3CCCN3)nc3c(-c4cnc(C)c(C)c4)cc(C#N)cc3c2=O)cc1F (centres unmarked) [Example 137, 8-(5,6-dimethylpyridin-3-yl)-3-(3-fluoro-4-methoxyphenyl)-4-oxo-2-(pyrrolidin-2-yl)-3,4-dihydroquinazoline-6-carbonitrile] | 1 to 50 | 1 to 50 |
